{"source": "paper PMC4633953", "about": "“FR171456 is a specific inhibitor of mammalian NSDHL and yeast Erg26p” (Nature Communications, 2015)", "key": {"503 cancer cell lines": {"system": "503 cancer cell lines", "experiment": "Compound activity profile against 503 cancer cell lines (72 h, Cell TiterGlo)", "assay_type": "cell-based", "conditions": "sensitive = Amax <50% and IC50 <5 μM", "description": "Supplementary figure 1. […] A plot […]\nof normalized maximal inhibition (Y axis) versus the inflection point (X Axis) of a standard dose-response curve for increasing concentrations of FR171456 incubated with 503 mammalian cell lines in culture for 72h (each symbol), as determined by Cell TiterGlo (Promega)"}, "R. oryzae": {"system": "R. oryzae", "experiment": "Combination with clinical antifungal agents (Loewe synergy)", "assay_type": "cell-based", "conditions": ">1 is synergistic"}, "[1]": {"system": "Scedosporium apiospermum NF4908", "experiment": "Antifungal MIC", "assay_type": "cell-based"}, "F. solani": {"system": "F. solani", "experiment": "Combination with clinical antifungal agents (Loewe synergy, growth by OD530)", "assay_type": "cell-based", "conditions": ">1 is synergistic", "method": "incubated for 24 h in increasing combined doses of FR171456 and Amphotericin B, and growth\nassessed by OD530. (a) Normalised growth rates plotted as % inhibition of growth. (b) Loewe excess\nheat map showing difference between predicted scores based upon the addition of each agent\nalone and the actual values detected plotted as difference in % of inhibition. (c) Loewe isobologram\n- a comparison of the doses of each compound needed to achieve 50% inhibition of proliferation."}, "[2]": {"system": "S. cerevisiae (BY4743 strain)", "experiment": "Yeast growth inhibition dose response (OD600)", "assay_type": "cell-based", "conditions": "BY4743, 14 h, 30 °C, YPD, 2% DMSO", "description": "Figure 2 FR171456 targets Erg26p in S. cerevisiae. (a) Structures of FR171456, and two related triterpenes (compound 1, compound 2). (b) Duplicate 12-point Dose response curves of wild-type diploid yeast with three compounds in a. Strain BY4743 was grown for 14 h at 30 °C in YPD media with 2% DMSO containing a dilution series of FR171456: black; Compound-1: light grey circles, and Compound-2: light grey squares. Y axis: OD600 absorbance indicating yeast growth, x axis: compound concentrations (log10 μM). (c) Haploinsufficiency and homozygous profiling (HIP resp. HOP) for FR171456 at 4 μM. Each mutant strain in the pool is represented by a circle (non-essential genes) or a square (essential genes). The, y axis represents strain sensitivity and x axis represents z-score (specificity). In (d), the z-scores of the HIP pool strains (y axis) plotted against increasing doses of FR171456 (x axis; μM). (e) Relative compound sensitivity profile of the erg26Δ/ERG26 strain across HIP experiments performed with 1,800 diverse small molecule yeast proliferation inhibitors. TEXT PRINTED IN THE PICTURE: (a) FR171456: MW 516.68; S.c. […] IC50 >200 μM | (a) Compound 2: MW 532.68; S.c. IC50 >200 μM"}, "[3]": {"system": "HCV replicon subgenomic genotype 1b", "experiment": "HCV replicon assay in Huh-7 cells (luciferase)", "conditions": "Hepatitis C virus; Huh-7 cell-based assay, 48 h", "description": "The inhibitor screening was performed in 1,536-well plate with 3,000 cells per well, using Huh-7 cells containing the HCV replicon subgenomic genotype 1b, maintained in DMEM, supplemented with (1 × ) L-glutamine (L-Glue), 1 × non-essential amino acids, 10% heat-inactivated fetal bovine serum (FBS), and 1 mg ml^–1 G418, and incubated with compounds for 48 h at 37 °C, 5% CO2. […] Following compound incubation, Resazurin solution (10 × : 1 μg μl^–1 Resazurin in DMSO) diluted to 1 × was then added to a volume of 0.5 μl to each well and incubated for further 3 h at 37 °C, 5% CO2 to monitor cell viability. Subsequently 15 μl, diluted 1:2 from stock of Steady- Glo (Promega) was added and the luminescence from the HCV replicon was monitored using the Envision (Envision US Lum, using 0.1 s per well measurement time)."}, "[4]": {"system": "ergosterol pathway intermediates in C. albicans SC5314", "experiment": "Focused metabolomics: 13C-labelled ergosterol pathway intermediates in C. albicans", "assay_type": "cell-based", "conditions": "increasing doses", "description": "For ^13C- labelling studies, the wild type C. albicans strain SC5314 was obtained from ATCC (Manassas, VA) and was cultured at 30 °C in YPD broth (1% yeast extract, 2% peptone, 2% dextrose) or Synthetic Medium (3% glycerol, 0.1% glucose, 65 mM NH4Cl, 1.7 mM NaCl, 7 mM KH2PO4, 1 mM CaCl2, 0.5 mM MgSO4).\nApproximately 1.25 × 10^8 C. albicans cells from a saturated YPD culture were inoculated into 100 ml Synthetic Medium (SM) and grown at 30 °C to an OD of 1.0. Cells were washed once in modified SM (25 mM KPO4 pH 7.0, with glucose omitted) and suspended to 5 OD600 units per ml in modified SM.\nLabelling reactions were performed in 12-ml glass tubes with PTFE-lined caps (Corning) and containing 1 ml cell suspension (∼6 × 10^7 cells), 10 μl DMSO or 10 μl compound dissolved in DMSO, 12 μl 1M D-Glucose (U^-13C6 glucose), and 10 μl 1 M (1,2^-13C2) sodium acetate (Cambridge Isotope Laboratories, Inc). Before LC-MS analysis, dried lipid extracts were dissolved in 500 μl methanol, vortexed and sonicated for 10 min.\nSqualene, ergosterol, lanosterol and zymosterol were quantified using the tandem mass spectrometer API4000 triple quadrupole (AB Sciex) with atmospheric pressure chemical ionization (APCI), interfaced to an Agilent LC.\nCells (∼6 × 10^7) and compounds were preincubated 15 min at 30 °C (without shaking) before the addition of labelled substrates. Labelling was performed at 30 °C with shaking for 4 h. Reactions were stopped by adding 1 ml 30% KOH, 1 ml 100% ethanol, and 0.2 ml 2% pyrogallol. Samples were mixed and then heated at 80 °C for 30 min, then cooled to room temperature. Non-saponifiable lipids were extracted two times in petroleum ether, washed with water, dried under nitrogen gas and stored at −80 °C.\nFor compound calibration, 2 μM solutions in 0.1% formic acid were directly infused into the mass spectrometer. Ergosterol, lanosterol and zymosterol undergo dehydration and their molecular species are detected as [M+H-H2O]^+ while squalene is detected as [M+H]^+. Supplementary Table 4 lists the multiple reaction monitoring parameters of the sterols and squalene, as well as the ^13C incorporated metabolites. The mass spectrometer source parameters are the following: CUR=40, GS1=60, NC=4.5. TEM=450 CAD=4. A mobile phase of 0.2% formic acid in methanol and isocratic run at 0.4 ml min^−1 was employed to separate the metabolites on a Waters XBridge C18 3.5 μm 2.1 × 50 mm column. The run time was 4.5 min."}}, "note": "“And” between values parts separate entries of the source, which are not always exact repeats. Equal entries are not always repeated. “Also recorded” adds a separate entry of the source."}
{"smiles": "C=C(CCC(C)C1CCC2C1(C)CC(O)C13CC14C(=O)CC(O)C(C)(C(=O)O)C4C(=O)CC23O)C(C)C", "note": "[FR171456, (1R,2aR,3R,5aR,5bS,7aR,8S,9S,11aS,12aR)-1,5b,9-trihydroxy-2a,8-dimethyl-3-((R)-6-methyl-5-methyleneheptan-2-yl)-7,11-dioxohexadecahydrocyclopenta[a]cyclopropa[e]-phenanthrene-8-carboxylic acid]", "values": [{"measurement": "anti-proliferative activity across cell line panel", "setting": "503 cancer cell lines", "result": "not anti-proliferative; also recorded: unaffected; also recorded: only five cell lines were sensitive"}, {"measurement": "Loewe synergy score", "setting": "R. oryzae; combination with Amphotericin B", "result": "< 1"}, {"measurement": "Loewe synergy score", "setting": "R. oryzae; combination with posaconazole", "result": "< 1"}, {"measurement": "MIC", "setting": "[1]", "result": "64 µg/mL and 144 µM"}, {"measurement": "Loewe synergy score", "setting": "F. solani; combination of Amphotericin B and FR171456, text prints R. oryzae, Supplementary Fig. 4 F. solani", "result": 2.7}, {"measurement": "Loewe synergy score", "setting": "F. solani; combination with posaconazole", "result": "< 1"}, {"measurement": "IC50", "setting": "[2]", "result": 13.6, "unit": "µM"}, {"measurement": "IC50", "setting": "[2]; Saccharomyces cerevisiae, 14 h", "result": 14, "unit": "µM"}, {"measurement": "IC50", "setting": "[3]", "result": 0.0063, "unit": "µM"}, {"measurement": "effect on 13C-labelled ergosterol", "setting": "[4]", "result": "dose-dependent reduction"}, {"measurement": "effect on 13C-labelled lanosterol", "setting": "[4]", "result": "increase"}, {"measurement": "effect on 13C-labelled zymosterol", "setting": "[4]", "result": "dose-dependent reduction"}]}
